Assay results: ChEMBL document CHEMBL1687789, “Characteristics and dissemination of mosaic penicillin-binding protein 2-harboring multidrug-resistant Neisseria gonorrhoeae isolates with reduced cephalosporin susceptibility in northern Taiwan” (2010)
Converted amounts (≈) assume the structure as drawn.

Assays:
Assay type in all cases: functional
[1] = tested on: Neisseria gonorrhoeae; assay: Antimicrobial activity against multidrug-resistant Neisseria gonorrhoeae isolates harboring mosaic penicillin-binding protein 2 penA by Etest
[2] = tested on: Neisseria gonorrhoeae; assay: Antimicrobial activity against multidrug-resistant Neisseria gonorrhoeae isolates by Etest
[3] = tested on: Neisseria gonorrhoeae; assay: Antimicrobial activity against Neisseria gonorrhoeae isolates harboring non-mosaic penicillin-binding protein 2 penA by Etest
[4] = tested on: Neisseria gonorrhoeae; assay: Antimicrobial activity against multidrug-resistant Neisseria gonorrhoeae isolates assessed as resistant isolates by disk susceptibility test
[5] = tested on: Neisseria gonorrhoeae; assay: Antimicrobial activity against multidrug-resistant Neisseria gonorrhoeae isolates harboring mosaic penicillin-binding protein 2 penA assessed as resistant isolates by disk susceptibility test
[6] = tested on: Neisseria gonorrhoeae; assay: Antimicrobial activity against Neisseria gonorrhoeae isolates harboring non-mosaic penicillin-binding protein 2 penA assessed as resistant isolates by disk susceptibility test

Row | Compound | MIC [1] [µg/mL] | MIC [2] [µg/mL] | MIC [3] [µg/mL] | Activity [4] [%] | Activity [5] [%] | Activity [6] [%]
1 | C=CC1=C(C(=O)O)N2C(=O)[C@@H](NC(=O)/C(=N\OCC(=O)O)c3csc(N)n3)[C@H]2SC1 [CEFIXIME] | 0.125 (≈ 0.276 µM) | 0.016 (≈ 0.0353 µM) | 0.016 (≈ 0.0353 µM) | – | – | –
2 | CO/N=C(\C(=O)N[C@@H]1C(=O)N2C(C(=O)O)=C(CSc3nc(=O)c(O)nn3C)CS[C@H]12)c1csc(N)n1 [CEFTRIAXONE] | 0.023 (≈ 0.0415 µM) | 0.002 (≈ 0.00361 µM) | 0.002 (≈ 0.00361 µM) | – | – | –
3 | O=C(O)c1cn(C2CC2)c2cc(N3CCNCC3)c(F)cc2c1=O [CIPROFLOXACIN] | – | – | – | 88.6 | 100 | 84.3
4 | CC1(C)S[C@@H]2[C@H](NC(=O)Cc3ccccc3)C(=O)N2[C@H]1C(=O)O [PENICILLIN G] | – | – | – | 62.2 | 71 | 58.9
